21 compounds from patent US8247377B2, “Non-steroidal glucocorticoid inhibitors and their use in treating inflammation, allergy and auto-immune conditions” (Glaxo Group Limited, priority 2006, dated 2012) can be followed below.

The assay deals with T1, glucocorticoid receptor (Homo sapiens, UniProt P04150).
T1 construct: a partially purified full length glucocorticoid receptor
T1 sequence (P04150 1-777): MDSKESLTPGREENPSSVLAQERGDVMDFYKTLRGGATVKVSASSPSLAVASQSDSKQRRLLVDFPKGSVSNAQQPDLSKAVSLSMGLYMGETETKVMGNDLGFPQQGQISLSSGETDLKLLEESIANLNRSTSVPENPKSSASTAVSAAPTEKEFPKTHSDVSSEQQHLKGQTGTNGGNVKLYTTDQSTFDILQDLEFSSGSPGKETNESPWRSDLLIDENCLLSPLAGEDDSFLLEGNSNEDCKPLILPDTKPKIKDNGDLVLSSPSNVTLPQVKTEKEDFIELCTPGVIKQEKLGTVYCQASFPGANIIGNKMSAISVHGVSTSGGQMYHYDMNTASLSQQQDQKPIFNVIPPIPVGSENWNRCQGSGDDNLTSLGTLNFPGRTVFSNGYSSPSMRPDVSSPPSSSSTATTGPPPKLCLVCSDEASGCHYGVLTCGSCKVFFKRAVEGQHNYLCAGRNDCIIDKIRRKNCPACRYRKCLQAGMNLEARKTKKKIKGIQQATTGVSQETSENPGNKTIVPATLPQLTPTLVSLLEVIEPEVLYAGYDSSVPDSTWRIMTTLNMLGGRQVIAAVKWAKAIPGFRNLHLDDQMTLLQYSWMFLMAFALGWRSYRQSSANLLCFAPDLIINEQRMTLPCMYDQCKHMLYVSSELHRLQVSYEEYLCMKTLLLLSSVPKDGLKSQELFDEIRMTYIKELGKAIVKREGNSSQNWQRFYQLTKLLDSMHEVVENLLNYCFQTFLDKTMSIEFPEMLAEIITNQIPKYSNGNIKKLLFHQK
Description: Glucocorticoid receptor binding assay (fluorescence polarisation). The conditions noted are these: competition with Alexa 555 fluorescently-labelled dexamethasone derivative, full length glucocorticoid receptor; read-out: glucocorticoid binding pIC50 (converted). In outline:
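Compounds in DMSO incubated with fluorescent dexamethasone and partially purified full-length GR plus stabilising buffer components, 2 hrs at room temperature in the dark. Displacement read as decrease in fluorescence polarisation; pIC50 estimated from dose-response curves.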
(Fluorescence polarisation rises when a labelled molecule tumbles more slowly, as on binding a larger partner.)

Some results are limits rather than exact numbers.

In the case of `CN(CC(O)(CNC(=O)c1cnn(-c2ccc(F)cc2)c1N)C(F)(F)F)C(=O)c1c(Cl)cccc1Cl` (racemic) [Example 1 (racemic), 5-Amino-N-(2-{[[(2,6-dichlorophenyl)carbonyl](methyl)amino]methyl}-3,3,3-trifluoro-2-hydroxypropyl)-1-(4-fluorophenyl)-1H-pyrazole-4-carboxamide], the IC50 is no more than 316 nM.
Then `CCN(CC(O)(CNC(=O)c1cnn(-c2ccc(F)cc2)c1N)C(F)(F)F)C(=O)c1c(Cl)cccc1Cl` (racemic) [Example 2 (racemic), 5-Amino-N-(2-{[[(2,6-dichlorophenyl)carbonyl](ethyl)amino]methyl}-3,3,3-trifluoro-2-hydroxypropyl)-1-(4-fluorophenyl)-1H-pyrazole-4-carboxamide], with no more than 316 nM; and `Nc1c(C(=O)NCC(O)(CNC(=O)c2c(Cl)cccc2Cl)C(F)(F)F)cnn1-c1ccc(F)cc1` (racemic) [Example 3 (racemic), 5-Amino-N-[2-({[(2,6-dichlorophenyl)carbonyl]amino}methyl)-3,3,3-trifluoro-2-hydroxypropyl]-1-(4-fluorophenyl)-1H-pyrazole-4-carboxamide], with no more than 316 nM; and `CCN(CC(O)(CNC(=O)c1cnn(-c2ccc(F)cc2)c1N)C(F)(F)F)C(=O)c1c(F)cccc1Cl` (racemic) [Example 4 (racemic), 5-Amino-N-(2-{[[(2-chloro-6-fluorophenyl)carbonyl](ethyl)amino]methyl}-3,3,3-trifluoro-2-hydroxypropyl)-1-(4-fluorophenyl)-1H-pyrazole-4-carboxamide], with no more than 316 nM.
Regarding `CCN(CC(O)(CNC(=O)c1cnn(-c2ccc(F)cc2)c1N)C(F)(F)F)C(=O)c1c(F)cccc1F` (racemic) [Example 5 (racemic), 5-Amino-N-(2-{[[(2,6-difluorophenyl)carbonyl](ethyl)amino]methyl}-3,3,3-trifluoro-2-hydroxypropyl)-1-(4-fluorophenyl)-1H-pyrazole-4-carboxamide], the IC50 was no more than 316 nM.
As for `Nc1c(C(=O)NCC(O)(CNC(=O)c2c(F)cccc2Cl)C(F)(F)F)cnn1-c1ccc(F)cc1` (racemic) [Example 7 (racemic), 5-Amino-N-[2-({[(2-chloro-6-fluorophenyl)carbonyl]amino}methyl)-3,3,3-trifluoro-2-hydroxypropyl]-1-(4-fluorophenyl)-1H-pyrazole-4-carboxamide], the figure is no more than 316 nM.
Then `CN(CC(O)(CNC(=O)c1cnn(-c2ccc(F)cc2)c1N)C(F)(F)F)C(=O)c1c(F)cccc1F` (racemic) [Example 8 (racemic), 5-Amino-N-(2-{[[(2,6-difluorophenyl)carbonyl](methyl)amino]methyl}-3,3,3-trifluoro-2-hydroxypropyl)-1-(4-fluorophenyl)-1H-pyrazole-4-carboxamide], with no more than 316 nM; and `CN(CC(O)(CNC(=O)c1cnn(-c2ccc(F)cc2)c1N)C(F)(F)F)C(=O)c1c(F)cccc1Cl` (racemic) [Example 9 (racemic), 5-Amino-N-(2-{[[(2-chloro-6-fluorophenyl)carbonyl](methyl)amino]methyl}-3,3,3-trifluoro-2-hydroxypropyl)-1-(4-fluorophenyl)-1H-pyrazole-4-carboxamide], with no more than 316 nM.
Then `CCN(CC(O)(CNC(=O)c1cnn(-c2ccc(F)cc2)c1N)C(F)(F)F)C(=O)c1ccccc1S(C)(=O)=O` (racemic) [Example 10 (racemic), 5-Amino-N-{2-[(ethyl{[2-(methylsulfonyl)phenyl]carbonyl}amino)methyl]-3,3,3-trifluoro-2-hydroxypropyl}-1-(4-fluorophenyl)-1H-pyrazole-4-carboxamide], with no more than 316 nM; and `Nc1c(C(=O)NCC(O)(CNC(=O)c2c(Br)cccc2Br)C(F)(F)F)cnn1-c1ccc(F)cc1` (racemic) [Example 11 (racemic), 5-Amino-N-[2-({[(2,6-dibromophenyl)carbonyl]amino}methyl)-3,3,3-trifluoro-2-hydroxypropyl]-1-(4-fluorophenyl)-1H-pyrazole-4-carboxamide], with no more than 316 nM.
In the case of `Nc1c(C(=O)NCC(O)(CNC(=O)c2c(Cl)cccc2Br)C(F)(F)F)cnn1-c1ccc(F)cc1` (racemic) [Example 12 (racemic), 5-Amino-N-[2-({[(2-bromo-6-chlorophenyl)carbonyl]amino}methyl)-3,3,3-trifluoro-2-hydroxypropyl]-1-(4-fluorophenyl)-1H-pyrazole-4-carboxamide], the IC50 was no more than 316 nM.
Then `Nc1c(C(=O)NCC(O)(CNC(=O)c2c(F)cccc2Br)C(F)(F)F)cnn1-c1ccc(F)cc1` (racemic) [Example 13 (racemic), 5-Amino-N-[2-({[(2-bromo-6-fluorophenyl)carbonyl]amino}methyl)-3,3,3-trifluoro-2-hydroxypropyl]-1-(4-fluorophenyl)-1H-pyrazole-4-carboxamide], with no more than 316 nM.
`Nc1c(C(=O)NCC(O)(CNC(=O)c2c(Cl)cccc2OC(F)F)C(F)(F)F)cnn1-c1ccc(F)cc1` (racemic) [Example 14 (racemic), 5-Amino-N-(2-{[({2-chloro-6-[(difluoromethyl)oxy]phenyl}carbonyl)amino]methyl}-3,3,3-trifluoro-2-hydroxypropyl)-1-(4-fluorophenyl)-1H-pyrazole-4-carboxamide]: the IC50 is no more than 316 nM.
Then `Nc1c(C(=O)NCC(O)(CNC(=O)c2c(C(F)(F)F)cccc2C(F)(F)F)C(F)(F)F)cnn1-c1ccc(F)cc1` (racemic) [Example 15 (racemic), 5-amino-N-{2-[({[2,6-bis(trifluoromethyl)phenyl]carbonyl}amino)methyl]-3,3,3-trifluoro-2-hydroxypropyl}-1-(4-fluorophenyl)-1H-pyrazole-4-carboxamide], with no more than 316 nM; and `CN(CC(O)(CNC(=O)c1cnn(-c2ccc(F)cc2)c1N)C(F)(F)F)C(=O)c1c(Cl)cccc1Br` (racemic) [Example 16 (racemic), 5-amino-N-(2-{[[(2-bromo-6-chlorophenyl)carbonyl](methyl)amino]methyl}-3,3,3-trifluoro-2-hydroxypropyl)-1-(4-fluorophenyl)-1H-pyrazole-4-carboxamide], with no more than 316 nM.
In the case of `Nc1c(C(=O)NCC(O)(CN(CCF)C(=O)c2c(F)cccc2F)C(F)(F)F)cnn1-c1ccc(F)cc1` (racemic) [Example 17 (racemic), 5-amino-N-(2-{[[(2,6-difluorophenyl)carbonyl](2-fluoroethyl)amino]methyl}-3,3,3-trifluoro-2-hydroxypropyl)-1-(4-fluorophenyl)-1H-pyrazole-4-carboxamide], the IC50 is no more than 316 nM.
As for `Nc1c(C(=O)NCC(O)(CN(CCF)C(=O)c2c(F)cccc2C(F)(F)F)C(F)(F)F)cnn1-c1ccc(F)cc1` (racemic) [Example 18 (racemic), 5-amino-1-(4-fluorophenyl)-N-{3,3,3-trifluoro-2-[((2-fluoroethyl){[2-fluoro-6-(trifluoromethyl)phenyl]carbonyl}amino)methyl]-2-hydroxypropyl}-1H-pyrazole-4-carboxamide], the IC50 is no more than 316 nM.
As for `Nc1c(C(=O)NCC(O)(CNC(=O)c2c(F)cccc2C(F)(F)F)C(F)(F)F)cnn1-c1ccc(F)cc1` (racemic) [Example 19 (racemic), 5-amino-1-(4-fluorophenyl)-N-{3,3,3-trifluoro-2-[({[2-fluoro-6-(trifluoromethyl)phenyl]carbonyl}amino)methyl]-2-hydroxypropyl}-1H-pyrazole-4-carboxamide], the figure is no more than 316 nM; as for `CN(CC(O)(CNC(=O)c1cnn(-c2ccc(F)cc2)c1N)C(F)(F)F)C(=O)c1c(F)cccc1C(F)(F)F` (racemic) [Example 21 (racemic), 5-amino-1-(4-fluorophenyl)-N-(3,3,3-trifluoro-2-{[{[2-fluoro-6-(trifluoromethyl)phenyl]carbonyl}(methyl)amino]methyl}-2-hydroxypropyl)-1H-pyrazole-4-carboxamide], no more than 316 nM; as for `CN(CC(O)(CNC(=O)c1cnn(-c2ccc(F)cc2)c1N)C(F)(F)F)C(=O)c1c(C(F)(F)F)cccc1C(F)(F)F` (racemic) [Example 22 (racemic), 5-amino-N-(2-{[{[2,6-bis(trifluoromethyl)phenyl]carbonyl}(methyl)amino]methyl}-3,3,3-trifluoro-2-hydroxypropyl)-1-(4-fluorophenyl)-1H-pyrazole-4-carboxamide], no more than 316 nM.
Then `CCN(CC(O)(CNC(=O)c1cnn(-c2ccc(F)cc2)c1N)C(F)(F)F)C(=O)c1c(F)cccc1C(F)(F)F` (racemic) [Example 23 (racemic), 5-amino-N-{2-[(ethyl{[2-fluoro-6-(trifluoromethyl)phenyl]carbonyl}amino)methyl]-3,3,3-trifluoro-2-hydroxypropyl}-1-(4-fluorophenyl)-1H-pyrazole-4-carboxamide], with no more than 316 nM.
